Like-named read-outs stand apart in the source and are kept apart here.
What was measured:
Type in all cases: cell-based
168 GPCRs [1] = molecular target: T1, 168 GPCRs (Homo sapiens, UniProt O95977)
T1 construct: host or cells: PathHunter cell lines
T1 sequence (O95977 1-384): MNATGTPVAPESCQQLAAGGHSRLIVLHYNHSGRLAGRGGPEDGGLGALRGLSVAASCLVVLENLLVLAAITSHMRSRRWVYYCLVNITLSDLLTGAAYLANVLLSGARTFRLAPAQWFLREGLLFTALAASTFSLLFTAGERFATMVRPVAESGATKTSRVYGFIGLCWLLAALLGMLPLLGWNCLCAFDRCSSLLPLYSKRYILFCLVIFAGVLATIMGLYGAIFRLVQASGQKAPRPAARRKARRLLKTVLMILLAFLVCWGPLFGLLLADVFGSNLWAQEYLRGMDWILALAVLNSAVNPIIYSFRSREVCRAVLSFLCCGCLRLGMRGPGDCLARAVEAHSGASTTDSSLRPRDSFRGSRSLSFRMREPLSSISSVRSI

168 GPCRs [2] = molecular target: T2, 168 GPCRs (Homo sapiens, UniProt P21452); settings: TACR2
T2 construct: host or cells: PathHunter cell lines
T2 sequence (P21452 1-398): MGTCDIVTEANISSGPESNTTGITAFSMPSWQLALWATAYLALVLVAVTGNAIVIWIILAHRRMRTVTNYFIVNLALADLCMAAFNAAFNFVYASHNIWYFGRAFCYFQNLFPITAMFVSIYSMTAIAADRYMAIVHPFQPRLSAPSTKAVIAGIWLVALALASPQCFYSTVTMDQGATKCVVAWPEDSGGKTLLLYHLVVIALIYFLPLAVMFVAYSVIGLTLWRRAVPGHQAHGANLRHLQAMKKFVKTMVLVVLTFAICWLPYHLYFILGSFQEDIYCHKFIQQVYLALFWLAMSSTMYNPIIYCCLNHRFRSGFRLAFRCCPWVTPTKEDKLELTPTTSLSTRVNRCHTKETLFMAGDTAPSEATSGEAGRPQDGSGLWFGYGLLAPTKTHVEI

168 GPCRs [3] = molecular target: T3, 168 GPCRs (Homo sapiens, UniProt P23945); settings: FSHR
T3 construct: host or cells: PathHunter cell lines
T3 sequence (P23945 18-695): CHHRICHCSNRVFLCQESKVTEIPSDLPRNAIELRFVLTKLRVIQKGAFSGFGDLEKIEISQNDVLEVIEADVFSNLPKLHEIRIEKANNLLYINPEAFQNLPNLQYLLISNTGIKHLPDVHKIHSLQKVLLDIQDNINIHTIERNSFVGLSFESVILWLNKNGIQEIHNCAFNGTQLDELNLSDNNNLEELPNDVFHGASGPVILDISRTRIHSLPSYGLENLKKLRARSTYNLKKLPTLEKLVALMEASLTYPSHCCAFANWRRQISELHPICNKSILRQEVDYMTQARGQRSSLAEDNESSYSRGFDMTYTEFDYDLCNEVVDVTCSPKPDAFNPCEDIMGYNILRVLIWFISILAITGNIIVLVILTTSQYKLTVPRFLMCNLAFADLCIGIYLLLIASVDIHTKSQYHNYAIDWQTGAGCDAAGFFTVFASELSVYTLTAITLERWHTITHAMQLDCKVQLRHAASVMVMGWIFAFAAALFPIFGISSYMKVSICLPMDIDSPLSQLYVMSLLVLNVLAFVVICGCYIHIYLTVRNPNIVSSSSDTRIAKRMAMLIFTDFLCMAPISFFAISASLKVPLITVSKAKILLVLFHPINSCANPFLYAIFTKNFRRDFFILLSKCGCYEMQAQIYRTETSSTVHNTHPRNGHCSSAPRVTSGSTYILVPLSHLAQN

168 GPCRs [4] = molecular target: T4, 168 GPCRs (Homo sapiens, UniProt Q96LB1)
T4 construct: host or cells: PathHunter cell lines
T4 sequence (Q96LB1 1-330): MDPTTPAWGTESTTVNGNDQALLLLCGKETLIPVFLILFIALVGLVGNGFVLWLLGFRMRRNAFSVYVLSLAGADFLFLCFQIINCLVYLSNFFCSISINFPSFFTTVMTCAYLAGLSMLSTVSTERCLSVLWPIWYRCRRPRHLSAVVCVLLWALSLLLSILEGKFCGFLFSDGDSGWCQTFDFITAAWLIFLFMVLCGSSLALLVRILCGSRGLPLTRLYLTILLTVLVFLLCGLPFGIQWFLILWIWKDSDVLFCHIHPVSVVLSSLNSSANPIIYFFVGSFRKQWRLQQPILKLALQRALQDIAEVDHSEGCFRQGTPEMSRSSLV

Compound: CNC(C)C(=O)c1ccc2c(c1)OCO2 (centres unmarked) [methylone]
- % Agonist Activity (168 GPCRs [1]; EDG6, 1 uM): -1.7%
- % Antagonist Activity (168 GPCRs [1]; EDG6, 1 uM): 13.2%
- % Agonist Activity (168 GPCRs [1]; EDG6, 10 uM): -0.3%
- % Antagonist Activity (168 GPCRs [1]; EDG6, 10 uM): 7.8%
- % Agonist Activity (168 GPCRs [2]; Conc 1 uM): -1.9%
- % Antagonist Activity (168 GPCRs [2]; Conc 1 uM): 10%
- % Agonist Activity (168 GPCRs [2]; Conc 10 uM): -3.3%
- % Antagonist Activity (168 GPCRs [2]; Conc 10 uM): 9.1%
- % Agonist Activity (168 GPCRs [3]; 1 uM): -1%
- % Antagonist Activity (168 GPCRs [3]; 1 uM): -11.8%
- % Agonist Activity (168 GPCRs [3]; 10 uM): -2.2%
- % Antagonist Activity (168 GPCRs [3]; 10 uM): -8.4%
- % Agonist Activity (168 GPCRs [4]; MRGPRX2, 1 uM): 1.4%
- % Antagonist Activity (168 GPCRs [4]; MRGPRX2, 1 uM): 16.2%
- % Agonist Activity (168 GPCRs [4]; MRGPRX2, 10 uM): 0.7%
- % Antagonist Activity (168 GPCRs [4]; MRGPRX2, 10 uM): 8.9%

Compound: CNC(C)Cc1ccc2c(c1)OCO2 (centres unmarked) [MDMA, 3,4-Methylenedioxy methamphetamine, reference compound]
- % Agonist Activity (168 GPCRs [1]; EDG6, 1 uM): 6.3%
- % Antagonist Activity (168 GPCRs [1]; EDG6, 1 uM): 14.1%
- % Agonist Activity (168 GPCRs [1]; EDG6, 10 uM): 4%
- % Antagonist Activity (168 GPCRs [1]; EDG6, 10 uM): 18%
- % Agonist Activity (168 GPCRs [2]; Conc 1 uM): 0.1%
- % Antagonist Activity (168 GPCRs [2]; Conc 1 uM): 12.5%
- % Agonist Activity (168 GPCRs [2]; Conc 10 uM): -0.1%
- % Antagonist Activity (168 GPCRs [2]; Conc 10 uM): 10.7%
- % Agonist Activity (168 GPCRs [3]; 1 uM): 0.7%
- % Antagonist Activity (168 GPCRs [3]; 1 uM): 3.2%
- % Agonist Activity (168 GPCRs [3]; 10 uM): -0.1%
- % Antagonist Activity (168 GPCRs [3]; 10 uM): -5.8%
- % Agonist Activity (168 GPCRs [4]; MRGPRX2, 1 uM): -0.8%
- % Antagonist Activity (168 GPCRs [4]; MRGPRX2, 1 uM): -6%
- % Agonist Activity (168 GPCRs [4]; MRGPRX2, 10 uM): -0.8%
- % Antagonist Activity (168 GPCRs [4]; MRGPRX2, 10 uM): 1.9%
